In US9120762B2, “Salts of bicyclo-substituted pyrazolon azo derivatives, preparation method and use thereof” (Jiangsu Hengrui Medicine Co., Ltd., priority 2009, dated 2015):
Values after ≈ are worked out from the molar mass of the structure shown. Read-outs that look alike come from different tables or passages of the source. One block for each compound: values may come before it.

Tests used:
[1] = Pharmacokinetics assay in rats; assay type: in vivo, SD rats; conditions: SD rats, intragastric, 50 mg/Kg (as free acid); for Vd/F / AUC / CL/F / half-life / MRT / Cmax / Tmax: both sexes, rat, po; for Vd/F: read-out: Apparent Distribution Volume Vz/F; for AUC: read-out: Area Under Curve AUC; for CL/F: read-out: Clearance CL/F (converted); for half-life: read-out: Half-Life t½ (converted); for MRT: read-out: Mean Residence Time MRT; for Cmax: read-out: Plasma Conc. Cmax; for Tmax: read-out: Time to peak Tmax
Method: The compounds of the present disclosure were administrated intragastrically to rats to determine the drug concentration in plasma at different time points by HPLC-UV. The pharmacokinetic behavior of the compounds of the present disclosure was studied and evaluated in rats. […] Healthy adult SD rats, male and female in half, were purchased from SINO-BRITSH SIPPR/BK LAB.ANIMAL LTD., Colo., License number: SCXK (Shanghai) 2003-0002 The test compound was diluted with 1% sodium carboxymethyl cellulose to 5 mg/mL (calculated as the free acid form) of suspension before use. Healthy adult SD rats, male and female in half, were divided into 23 groups. […] The plasma samples were stored at −20° C. until analysis. The rats were fed 2 hours after administration. […] Then the mixture was mixed for 3 minute using a vortexer and centrifuged for 10 minutes at 13,500 rpm. 40 μL of the supernatant was analyzed by HPLC-UV. The compartmental model of pharmacokinetics was fitted for the test compounds and the major pharmacokinetic parameters were calculated in which Cmax and tmax were the actually measured values.

[2] = Solubility assay in water, 0.1% hydrochloric acid and methanol; assay type: physicochemical
Method: The solubility was characterized by:
The term “very soluble” refers to that 1 g (mL) of solute can be dissolved in less than 1 mL of solvent;
The term “freely soluble” refers to that 1 g (mL) of solute can be dissolved in from 1 mL to 10 mL, not including 10 mL of solvent;
The term “soluble” refers to that 1 g (mL) of solute can be dissolved in from 10 mL to 30 mL, not including 30 mL of solvent;
The term “sparingly soluble” refers to that 1g (mL) of solute can be dissolved in from 30 mL to 100 mL, not including 100 mL of solvent;
The term “slightly soluble” refers to that 1g (mL) of solute can be dissolved in from 100 mL to 1000 mL, not including 1000 mL of solvent;
The term “very slightly soluble” refers to that 1g (mL) of solute can be dissolved in from 1000 mL to 10000 mL, not including 10000 mL of solvent;
The term “practically insoluble or insoluble” refers to that 1g (mL) of solute cannot be dissolved completely in 10000 mL of solvent.

Vd/F ([1]; SD, plasma, 50 mg/kg): 0.95 ± 0.42 L/kg | AUC ([1]; SD, plasma, 50 mg/kg): 680 ± 255 µg·h/mL | CL/F ([1]; SD, plasma, 50 mg/kg): 1.48 mL/min/kg | half-life ([1]; SD, plasma, 50 mg/kg): 7.82 ± 1.34 h | MRT ([1]; SD, plasma, 50 mg/kg): 11.2 ± 2.6 h | Cmax ([1]; SD, plasma, 50 mg/kg): 61800 ± 18700 ng/mL | Tmax ([1]; SD, plasma, 50 mg/kg): 5.5 ± 1 h
SMILES: CC1=NN(c2ccc(C)c(C)c2)C(=O)/C1=N\Nc1cccc(-c2cccc(C(=O)O)c2)c1O [Eltrombopag, eltrombopag, reference compound]

SMILES: CC1=NN(c2ccc3c(c2)CCC3)C(=O)/C1=N\Nc1cccc(-c2cccc(C(=O)O)c2)c1O.CCNCC.CCNCC [Example 2, (Z)-2′-hydroxy-3′-[N′-(1-indan-5-yl-3-methyl-5-oxo-1,5-dihydro-pyrazol-4-ylidene)-hydrazino]-biphenyl-3-carboxylic acid bis-(diethylamine)]
Vd/F ([1]; in vivo): 0.83 ± 0.16 L/kg | AUC ([1]; in vivo): 833 ± 64 µg·h/mL | CL/F ([1]; in vivo): 1 mL/min/kg | half-life ([1]; in vivo): 9.55 ± 1.44 h | MRT ([1]; in vivo): 11.1 ± 0.76 h | Cmax ([1]; in vivo): 83900 ± 11200 ng/mL | Tmax ([1]; in vivo): 5 ± 1.16 h

SMILES: CC1=NN(c2ccc3c(c2)CCC3)C(=O)/C1=N\Nc1cccc(-c2cccc(C(=O)O)c2)c1O [Example 3, (Z)-2′-hydroxy-3′-[N′-(1-indan-5-yl-3-methyl-5-oxo-1,5-dihydro-pyrazol-4-ylidene)-hydrazino]-biphenyl-3-carboxylic acid bis-(piperazine)]
solubility ([2]; 0.1% hydrochloric acid): <1 µg/mL | solubility ([2]; methanol): 1534 µg/mL (≈ 3.38 mM) | solubility ([2]; water): 2290 µg/mL (≈ 5.04 mM) | Area Under Curve AUC ([1]; 50 mg/kg): 842 ± 185 µg·h/mL | Half-Life t½ ([1]; 50 mg/kg): 8.87 ± 0.78 h | Mean Residence Time MRT ([1]; 50 mg/kg): 13.0 ± 0.9 h | Plasma Conc. Cmax ([1]; 50 mg/kg): 79000 ± 9300 ng/mL | CL/F ([1]; SD, plasma, 50 mg/kg): 1.03 mL/min/kg | Tmax ([1]; SD, plasma, 50 mg/kg): 5.5 ± 1 h

SMILES: CC1=NN(c2ccc3c(c2)CCCC3)C(=O)/C1=N\Nc1cccc(-c2ccc(C(=O)O)o2)c1O [Example 7d, (Z)-5-(2-hydroxy-3-{N′-[3-methyl-5-oxo-1-(5,6,7,8-tetrahydro-naphthalen-2-yl)-1,5-dihydro-pyrazol-4-ylidene]-hydrazino}-phenyl)-furan-2-carboxylic acid]
Half-Life t½ ([1]; 50 mg/kg): 7.42 ± 7.19 h | Plasma Conc. Cmax ([1]; 50 mg/kg): 16200 ± 3900 ng/mL | Time to peak Tmax ([1]; 50 mg/kg): 2.5 ± 1.0 h

SMILES: CC1=NN(c2ccc3c(c2)CCCC3)C(=O)/C1=N\Nc1cccc(-c2ccc(C(=O)O)o2)c1O [Example 11, (Z)-5-(2-hydroxy-3-{N′-[3-methyl-5-oxo-1-(5,6,7,8-tetrahydro-naphthalen-2-yl)-1,5-dihydro-pyrazol-4-ylidene]-hydrazino}-phenyl)-furan-2-carboxylic acid bis-(piperazine)]
Area Under Curve AUC ([1]; 50 mg/kg): 270 ± 178 µg·h/mL | Clearance CL/F ([1]; 50 mg/kg): 14.6 ± 24.42 mL/min/kg | Half-Life t½ ([1]; 50 mg/kg): 12.1 ± 7.19 h | Plasma Conc. Cmax ([1]; 50 mg/kg): 40200 ± 24300 ng/mL | Time to peak Tmax ([1]; 50 mg/kg): 1.5 ± 0.58 h

SMILES: CC1=NN(c2ccc3c(c2)CCC3)C(=O)/C1=N\Nc1cccc(-c2ccc(C(=O)O)o2)c1O.NCCO.NCCO [Example 16, (Z)-5-{2-hydroxy-3-[N′-(1-indan-5-yl-3-methyl-5-oxo-1,5-dihydro-pyrazol-4-ylidene)-hydrazino]-phenyl}-furan-2-carboxylic acid bis-(ethanolamine)]
Vd/F ([1]; SD, plasma, 50 mg/kg): 6.33 ± 4.57 L/kg | AUC ([1]; SD, plasma, 50 mg/kg): 52.4 ± 48 µg·h/mL | CL/F ([1]; SD, plasma, 50 mg/kg): 32.3 mL/min/kg | half-life ([1]; SD, plasma, 50 mg/kg): 2.08 ± 1.74 h | MRT ([1]; SD, plasma, 50 mg/kg): 3.84 ± 1.03 h | Cmax ([1]; SD, plasma, 50 mg/kg): 19600 ± 16300 ng/mL | Tmax ([1]; SD, plasma, 50 mg/kg): 2 ± 0.82 h

SMILES: CC1=NN(c2ccc3c(c2)CCC3)C(=O)/C1=N\Nc1cccc(-c2ccc(C(=O)O)o2)c1O.CCNCC.CCNCC [Example 17, (Z)-5-{2-hydroxy-3-[N′-(1-indan-5-yl-3-methyl-5-oxo-1,5-dihydro-pyrazol-4-ylidene)-hydrazino]-phenyl}-furan-2-carboxylic acid bis-(diethylamine)]
Vd/F ([1]; in vivo): 8.16 ± 11.1 L/kg | AUC ([1]; in vivo): 138 ± 33 µg·h/mL | CL/F ([1]; in vivo): 6.33 mL/min/kg | half-life ([1]; in vivo): 12.7 ± 14.7 h | MRT ([1]; in vivo): 14 ± 12 h | Cmax ([1]; in vivo): 21500 ± 10500 ng/mL | Tmax ([1]; in vivo): 3.38 ± 3.04 h

SMILES: CC1=NN(c2ccc3c(c2)CCC3)C(=O)/C1=N\Nc1cccc(-c2ccc(C(=O)O)o2)c1O [Example 18, (Z)-5-{2-hydroxy-3-[N′-(1-indan-5-yl-3-methyl-5-oxo-1,5-dihydro-pyrazol-4-ylidene)-hydrazino]-phenyl}-furan-2-carboxylic acid bis-(piperazine)]
solubility ([2]; 0.1% hydrochloric acid): <1 µg/mL | solubility ([2]; methanol): 6096 µg/mL (≈ 13.7 mM) | solubility ([2]; water): 2741 µg/mL (≈ 6.17 mM) | Area Under Curve AUC ([1]; 50 mg/kg): 119 ± 102 µg·h/mL | Clearance CL/F ([1]; 50 mg/kg): 10.5 ± 5.83 mL/min/kg | Half-Life t½ ([1]; 50 mg/kg): 3.99 ± 1.60 h | Mean Residence Time MRT ([1]; 50 mg/kg): 5.31 ± 2.64 h | Plasma Conc. Cmax ([1]; 50 mg/kg): 23300 ± 11600 ng/mL | Time to peak Tmax ([1]; 50 mg/kg): 1.63 ± 1.63 h

SMILES: CC1=NN(c2ccc3c(c2)CCC3)C(=O)/C1=N\Nc1cccc(-c2csc(C(=O)O)c2)c1O.NCCO.NCCO [Example 19, (Z)-4-{2-hydroxy-3-[N′-(1-indan-5-yl-3-methyl-5-oxo-1,5-dihydro-pyrazol-4-ylidene)-hydrazino]-phenyl}-thiophene-2-carboxylic acid bis-(ethanolamine)]
Vd/F ([1]; SD, plasma, 50 mg/kg): 5.47 ± 2.72 L/kg | AUC ([1]; SD, plasma, 50 mg/kg): 89.2 ± 7.2 µg·h/mL | CL/F ([1]; SD, plasma, 50 mg/kg): 14.7 mL/min/kg | half-life ([1]; SD, plasma, 50 mg/kg): 5.71 ± 3.68 h | MRT ([1]; SD, plasma, 50 mg/kg): 7.85 ± 2.92 h | Cmax ([1]; SD, plasma, 50 mg/kg): 20800 ± 17300 ng/mL | Tmax ([1]; SD, plasma, 50 mg/kg): 1.81 ± 2.79 h

SMILES: CC1=NN(c2ccc3c(c2)CCC3)C(=O)/C1=N\Nc1cccc(-c2csc(C(=O)O)c2)c1O.CCNCC.CCNCC [Example 20, (Z)-4-{2-hydroxy-3-[N′-(1-indan-5-yl-3-methyl-5-oxo-1,5-dihydro-pyrazol-4-ylidene)-hydrazino]-phenyl}-thiophene-2-carboxylic acid bis-(diethylamine)]
Vd/F ([1]; in vivo): 2.05 ± 0.68 L/kg | AUC ([1]; in vivo): 275 ± 116 µg·h/mL | CL/F ([1]; in vivo): 3.5 mL/min/kg | half-life ([1]; in vivo): 7.24 ± 2.45 h | MRT ([1]; in vivo): 7.59 ± 1.33 h | Cmax ([1]; in vivo): 46100 ± 15700 ng/mL | Tmax ([1]; in vivo): 4.5 ± 1 h

SMILES: CC1=NN(c2ccc3c(c2)CCC3)C(=O)/C1=N\Nc1cccc(-c2csc(C(=O)O)c2)c1O [Example 21, (Z)-4-{2-hydroxy-3-[N′-(1-indan-5-yl-3-methyl-5-oxo-1,5-dihydro-pyrazol-4-ylidene)-hydrazino]-phenyl}-thiophene-2-carboxylic acid bis-(piperazine)]
solubility ([2]; 0.1% hydrochloric acid): <1 µg/mL | solubility ([2]; methanol): 2416 µg/mL (≈ 5.25 mM) | solubility ([2]; water): 814 µg/mL (≈ 1.77 mM) | Area Under Curve AUC ([1]; 50 mg/kg): 380 ± 109 µg·h/mL | Clearance CL/F ([1]; 50 mg/kg): 2.33 ± 0.67 mL/min/kg | Half-Life t½ ([1]; 50 mg/kg): 6.86 ± 0.48 h | Mean Residence Time MRT ([1]; 50 mg/kg): 8.61 ± 0.31 h | Plasma Conc. Cmax ([1]; 50 mg/kg): 61100 ± 1380 ng/mL | Time to peak Tmax ([1]; 50 mg/kg): 5.5 ± 1.0 h
